Where “and” joins values, the source holds several entries; their conditions need not be identical. Equal values may be shown once. Read-outs that look alike come from different tables or passages of the source.
Legend:
[1] = test system: PDSs in hippocampal slices evoked by 4-AP; test: 4-AP-evoked PDSs, field potential recording in hippocampal slices; format: cell-based, rat; conditions: for frequency and amplitude of PDSs: bath applied to slices with 4-AP induced seizures, NPPB 100 μM, FFA 100 μM
[2] = test system: 4-AP induced astrocytic Ca^2+ signaling in cortex; test: In vivo two-photon imaging of 4-AP induced astrocytic Ca^2+ signaling; design: species or system mice
[3] = test system: ATP-induced Ca^2+ waves in cortical astrocytes; test: In vivo two-photon imaging of ATP-induced astrocytic Ca^2+ waves; design: species or system mice
[4] = test system: cultured astrocytes; test: Astrocyte cell volume, confocal x-z line scans of calcein-loaded cultures; format: cell-based, rat
[5] = test system: cultured rat cortical astrocytes; test: ATP-induced glutamate release, enzymatic fluorescence assay; format: cell-based; conditions: for glutamate release triggered by ATP agonists: 100 μM
[6] = test system: glutamate-permeable channel in cultured astrocytes; test: Whole-cell recording of ATP-induced current in cultured astrocytes; format: cell-based, rat; conditions: for effect on ATP-induced current: NaCl outside, BAPTA 10 mM in pipette, NPPB 100 μM, FFA 100 μM, gossypol 10 μM, OxATP 300 μM 1 h
[7] = test system: astrocytic Ca^2+ signaling in hippocampal slices; format: cell-based, rat
[8] = test system: cultured astrocytes; test: Ca^2+ imaging in cultured astrocytes; format: cell-based, rat; conditions: absence of co-cultured neurons
[9] = test system: hippocampus of adult rat; conditions: in vivo
[10] = test system: cultured rat cortical astrocytes; test: Hypotonicity (swelling)-induced glutamate release, enzymatic fluorescence assay; format: cell-based
[11] = test system: cultured astrocytes; test: HPLC analysis of amino acid release from perfused astrocyte cultures; format: cell-based, rat
[12] = test system: glutamate-permeable channel in astrocytes in hippocampal slices; test: Whole-cell recording of ATP-induced inward current in astrocytes in hippocampal slices; format: cell-based, rat; conditions: for effect on ATP-induced inward current: 10 mM intracellular BAPTA, 100 μM NPPB in bath
[13] = test system: PDSs in hippocampal slices; test: PDSs across all experimental seizure models (4-AP, Mg^2+-free, bicuculline, penicillin, Ca^2+-free); format: cell-based, rat
[14] = test system: interneurons in hippocampal slices; format: cell-based, rat
[15] = test system: cultured astrocytes; format: cell-based, rat
[16] = test system: astrocytes in suspension; format: cell-based, rat
[17] = test system: cultured astrocytes from Cx43 KO mice; format: cell-based
[18] = test system: astrocytes in hippocampal slices; format: cell-based, rat
[19] = valproate 450 mg/kg, gabapentin 200 mg/kg, phenyloin 100 mg/kg i.p., 5-30 min after 4-AP
[20] = valproate 450 mg/kg, gabapentin 200 mg/kg, phenyloin 100 mg/kg i.p., iontophoretic ATP, non-epileptic mice
[21] = NPPB 100 μM, FFA 100 μM, gossypol 10 μM
[22] = 214 mOsM, same concentrations as for ATP-induced release

## N#Cc1cc2c(cc1[N+](=O)[O-])=NC(=O)C(=O)N=2 [CNQX, 6-cyano-7-nitroquinoxaline-2,3-dione]
[1]
  frequency and amplitude of PDSs compared with TTX alone: significant decrease

## O=C1NC(=O)C(c2ccccc2)(c2ccccc2)N1 [phenyloin]
[2]; [19]
  4-AP-induced Ca^2+ signaling reduced by: 45.5%
[3]; [20]
  ATP-evoked astrocytic Ca^2+ signaling (Ca^2+ waves) depressed by: 23.8%

## O=c1ccn([C@@H]2O[C@H](COP(=O)(O)OP(=O)(O)OP(=O)(O)O)[C@@H](O)[C@H]2O)c(=O)[nH]1 [UTP]
[4]
  increase in vertical sectional areas (cell swelling): 5.75±0.57%
[5]
  glutamate release triggered by ATP agonists: roughly equivalent to that of ATP

## NCC1(CC(=O)O)CCCCC1 [gabapentin]
[2]; mouse, in vivo
  4-AP-induced Ca^2+ signaling reduced by: 55.6%
[3]; mouse, in vivo
  ATP-evoked astrocytic Ca^2+ signaling (Ca^2+ waves) depressed by: 53.8%

## Nc1ncnc2c1ncn2[C@@H](C=O)O[C@@H](C=O)COP(=O)(O)OP(=O)(O)OP(=O)(O)O [OxATP, oxidized ATP]
[5]
  effect on ATP-induced glutamate release: did not significantly reduce
[6]
  effect on ATP-induced current: no significant effect

## Nc1ccncc1 [4-AP, 4-aminopyridine]
[7]
  astrocytic Ca^2+ signaling (Ca^2+ oscillations): potently initiated astrocytic Ca^2+ signaling
[8]
  Ca^2+ signaling in cultured astrocytes: promptly induced Ca^2+ signaling
[9]
  extracellular concentration of glutamate: 6 to 10 µM
  increase in release of amino acid osmolytes (glutamate, aspartate, glutamine, taurine): 3-8 fold

## methionine sulfoximine [MSO]
[5]
  effect on ATP-induced glutamate release: increased glutamate release
[10]
  effect on glutamate release evoked by hypoosmotic challenge: increased glutamate release

## O=C(O)c1cc([N+](=O)[O-])ccc1NCCCc1ccccc1 [NPPB, 5-nitro-2-(3-phenylpropylamino) benzoic acid]
[1]
  frequency and amplitude of PDSs: markedly reduced
[5]; [21]
  glutamate release in presence of anion channel blocker: 0.22±0.14 fmol per cell
[5]; after exposure to 10 μM ATP, NPPB 100 μM
  reduction of glutamate release: 72.6±3.9%
[10]; [22]
  effect on glutamate release evoked by hypoosmotic challenge: decreased
[11]
  effect on glutamate, aspartate, glutamine and taurine release evoked by ATP: inhibited
[6]
  effect on ATP-induced current: inhibited ATP-induced current
[12]
  effect on ATP-induced inward current: attenuated

## 2′,3′-O-(4-benzoylbenzoyl)-ATP [Bz-ATP]
[4]; 100 μM agonist, 1 min
  increase in vertical sectional areas (cell swelling): 1.35±1.05%
[5]
  glutamate release triggered by ATP agonists: without effect

## O=C(O)CN(CC(=O)O)c1ccccc1OCCOc1ccccc1N(CC(=O)O)CC(=O)O [BAPTA, 1,2-bis (2-aminophenoxy) Ethane-N,N,N′,N′-tetraacetic acid]
[10]; [22]
  effect on glutamate release evoked by hypoosmotic challenge: failed to affect
[6]
  effect on ATP-induced current: blocked
[12]
  effect on ATP-induced inward current: attenuated

## Nc1c(S(=O)(=O)O)cc(Nc2ccc(Nc3nc(Cl)nc(Nc4cccc(S(=O)(=O)O)c4)n3)c(S(=O)(=O)O)c2)c2c1C(=O)c1ccccc1C2=O [Reactive Blue 2]
[5]
  effect on ATP-induced glutamate release: blocked the release

## O=C(O)c1ccccc1Nc1cccc(C(F)(F)F)c1 [FFA, flufenamic acid]
[1]
  frequency and amplitude of PDSs: markedly reduced
[5]; [21]
  glutamate release in presence of anion channel blocker: 0.00±0.00 fmol per cell
[10]; [22]
  effect on glutamate release evoked by hypoosmotic challenge: decreased
[6]
  effect on ATP-induced current: inhibited ATP-induced current

## NC1=N[C@H](O)[C@H]2[C@H]3O[C@]4(O)O[C@@H]([C@@H](O)[C@@]2(N1)[C@@H]4O)[C@]3(O)CO [TTX, tetrodotoxin]
[1]
  decrease of relative frequency of PDSs compared with 4-AP alone: 32±8%
  frequency and amplitude of 4-AP induced PDSs: only slightly decreased
  frequency and amplitude of PDSs reduced by: 20-35%
[13]
  frequency of PDSs reduced to: 70-90 % of total
[7]
  frequency or amplitude of astrocytic Ca^2+ oscillations: did not reduce

## CO/C1=C\C(C)=C\[C@@H](C)[C@@H](O)[C@@H](C)C/C(C)=C/C=C/[C@H](OC)[C@@H]([C@@H](C)[C@@H](O)[C@H](C)[C@@]2(O)C[C@@H](O)[C@H](C)[C@@H](C(C)C)O2)OC1=O [bafilomycin A1]
[5]
  effect on ATP-induced glutamate release: no effect
[10]
  effect on glutamate release evoked by hypoosmotic challenge: no effect
[14]
  frequency of inhibitory postsynaptic currents: 0.2 per sec

## C[C@@](N)(C(=O)O)c1ccc(C(=O)O)cc1 [(S)-MCPG, (S)-Alpha-methyl-4-carboxy-phenylglycine]
[1]
  frequency and amplitude of PDSs compared with TTX alone: failed to reduce

## CCCC(CCC)C(=O)O [valproate]
[2]; [19]
  4-AP-induced Ca^2+ signaling reduced by: 69.7%
[3]; [20]
  ATP-evoked astrocytic Ca^2+ signaling (Ca^2+ waves) depressed by: 64.9%

## Cc1cc2c(C(C)C)c(O)c(O)c(C=O)c2c(O)c1-c1c(C)cc2c(C(C)C)c(O)c(O)c(C=O)c2c1O [gossypol]
[5]
  glutamate release in presence of anion channel blocker: 0.07±0.07 fmol per cell

## CCOc1ccc(Nc2ccc(/C(=C3C=C/C(=[N+](/CC)Cc4cccc(S(=O)(=O)[O-])c4)C=C/3C)c3ccc(N(CC)Cc4cccc(S(=O)(=O)[O-])c4)cc3C)cc2)cc1.[Na+] [BBG, Brilliant Blue G]
[5]; BBG 1 μM
  ATP-induced glutamate release: 106.4±19.1 % of control
[12]; BBG 1 μM, P=0.8
  amplitude of the ATP-induced inward current: 106.8±22.0%

## NC(CCCP(=O)(O)O)C(=O)O (stereo not shown) [APV, 2-amino-5-phosphonovalerate]
[1]
  frequency and amplitude of PDSs compared with TTX alone: highly significant reduction

## N[C@H](C(=O)O)[C@H](OCc1ccccc1)C(=O)O [TBOA, D,L-threo-beta-benzyloxyaspartate]
[1]
  frequency and amplitude of PDSs compared with TTX alone: increased the frequency and amplitude of PDSs significantly
[5]
  effect on ATP-induced glutamate release: without effect
[10]; [22]
  effect on glutamate release evoked by hypoosmotic challenge: without effect

## CC(=O)OCOC(=O)CN(CC(=O)OCOC(C)=O)c1ccccc1OCCOc1ccccc1N(CC(=O)OCOC(C)=O)CC(=O)OCOC(C)=O [BAPTA/AM, 1,2-bis(2-aminophenoxy)ethane-N,N,N′,N′-tetraacetate (BAPTA)/AM]
[4]; ATP 100 μM, BAPTA/AM 20 μM preloaded
  ATP-induced increase in vertical sectional areas attenuated to: 1.63±0.73%
[5]
  effect on ATP-induced glutamate release: attenuated the release
[11]
  effect on glutamate, aspartate, glutamine and taurine release evoked by ATP: inhibited

## C/C=C(/C)C(=O)O[C@H]1C(C)=C2[C@H]([C@@H]1OC(=O)CCCCCCC)[C@@](C)(OC(C)=O)C[C@H](OC(=O)CCC)[C@@]1(O)[C@H]2OC(=O)[C@@]1(C)O [thapsigargin]
[5]
  effect on ATP-induced glutamate release: attenuated the release
[10]; [22]
  effect on glutamate release evoked by hypoosmotic challenge: failed to affect

## COc1ccc2c(c1)c(CC(=O)O)c(C)n2C(=O)c1ccc(Cl)cc1 [Indomethacin]
[5]
  effect on ATP-induced glutamate release: did not reduce

## Nc1ncnc2c1ncn2[C@@H]1O[C@H](COP(=O)(O)CP(=O)(O)OP(=O)(O)O)[C@@H](O)[C@H]1O [αβ-meATP]
[5]
  glutamate release triggered by ATP agonists: without effect

## Nc1ncnc2c1ncn2[C@@H]1O[C@H](COP(=O)(O)OP(=O)(O)OP(=O)(O)O)[C@@H](O)[C@H]1O [ATP]
[4]
  increase in vertical sectional areas (cell swelling): 5.19±0.66%
  volume increase: 5.2%
[15]
  decrease in fluorescence-dilution emission: 9.6±1.3%
[16]
  increase in astrocytic cell volume: 3.5±0.6% and 3.0±0.5%
[5]
  glutamate release: 2.49±0.21 fmol glutamate per cell
[17]
  glutamate release: 3.02 fmol per cell
  glutamate release relative to astrocytes from wild-type littermates: 90.7%
[11]
  increase in glutamate release: 2- to 5 fold
[6]
  ATP-triggered inward current, amplitude: 250±33 pA
  ATP-triggered inward current, average amplitude: 177±37 pA and 138±36 pA
[18]
  duration of the fluo-4 signal increase: 8.7 ± 1.4 s
  increase in the fluo-4 signal over baseline: 131±13%
[12]
  ATP-induced inward current: 254±31 pA
